Data: ChEMBL document CHEMBL4052811, “Design, synthesis and antiproliferative activity of novel substituted 2-amino-7,8-dihydropteridin-6(5H)-one derivatives” (Bioorg Med Chem Lett, 2017)

Experiments:
BT-549 [1] = assay: Cytotoxicity against human BT549 cells after 48 hrs by MTT assay; assay type: functional, cell-based; conditions: BT-549, 48 h
MDA-MB-231 = assay: Cytotoxicity against human MDA-MB-231 cells after 48 hrs by MTT assay; assay type: functional, cell-based; conditions: MDA-MB-231, 48 h
MDA-MB-468 [2] = assay: Cytotoxicity against human MDA-MB-468 cells after 48 hrs by MTT assay; assay type: functional, cell-based; conditions: MDA-MB-468, 48 h
T47D [3] = assay: Cytotoxicity against human T47D cells after 48 hrs by MTT assay; assay type: functional, cell-based
T47D [4] = assay: Cell cycle arrest in human T47D cells assessed as accumulation at G2/M phase at 6 uM after 12 to 48 hrs by FACS analysis (reference value: 18.51%); assay type: functional
T47D [5] = assay: Potency index, ratio of fluorouracil IC50 to compound IC50 for human T47D cells; assay type: functional
T47D [6] = assay: Cell cycle arrest in human T47D cells assessed as accumulation at G2/M phase at 12 uM after 12 to 48 hrs by FACS analysis (reference value: 18.51%); assay type: functional
T47D [7] = assay: Cell cycle arrest in human T47D cells assessed as accumulation at S phase at 3 uM after 12 to 48 hrs by FACS analysis (reference value: 21.82%); assay type: functional
T47D [8] = assay: Cell cycle arrest in human T47D cells assessed as accumulation at G2/M phase at 3 uM after 12 to 48 hrs by FACS analysis (reference value: 18.51%); assay type: functional
T47D [9] = assay: Cell cycle arrest in human T47D cells assessed as accumulation at G0/G1 phase at 12 uM after 12 to 48 hrs by FACS analysis (reference value: 59.67%); assay type: functional
BT-549 [10] = assay: Potency index, ratio of fluorouracil IC50 to compound IC50 for human BT549 cells; assay type: functional
MDA-MB-468 [11] = assay: Potency index, ratio of fluorouracil IC50 to compound IC50 for human MDA-MB-468 cells; assay type: functional
T47D [12] = assay: Cell cycle arrest in human T47D cells assessed as accumulation at S phase at 12 uM after 12 to 48 hrs by FACS analysis (reference value: 21.82%); assay type: functional
T47D [13] = assay: Cell cycle arrest in human T47D cells assessed as accumulation at G0/G1 phase at 6 uM after 12 to 48 hrs by FACS analysis (reference value: 59.67%); assay type: functional
T47D [14] = assay: Cell cycle arrest in human T47D cells assessed as accumulation at S phase at 6 uM after 12 to 48 hrs by FACS analysis (reference value: 21.82%); assay type: functional
T47D [15] = assay: Cell cycle arrest in human T47D cells assessed as accumulation at G1 phase after 12 to 48 hrs by FACS analysis; assay type: functional, cell-based
T47D [16] = assay: Cell cycle arrest in human T47D cells assessed as accumulation at G0/G1 phase at 3 uM after 12 to 48 hrs by FACS analysis (reference value: 59.67%); assay type: functional

SMILES	IC50 (BT-549 [1])	IC50 (MDA-MB-231)	IC50 (MDA-MB-468 [2])	IC50 (T47D [3])	also measured
O=C1CN(Cc2ccccc2)c2nc(Nc3ccc(Cl)cc3)ncc2N1	> 100 µM	> 100 µM	> 100 µM	> 100 µM	
COc1cccc(CNc2ncc3c(n2)N(Cc2ccccc2)CC(=O)N3)c1	15.6 µM	47 µM	23.2 µM	15.3 µM	
CN1CC(=O)Nc2cnc(Nc3ccc(Cl)cc3)nc21	91 µM	> 100 µM	31.3 µM	36 µM	
CN1CC(=O)Nc2cnc(NCc3ccccc3)nc21	78.8 µM	92 µM	94.4 µM	89.7 µM	
COc1cc(Nc2ncc3c(n2)N(Cc2ccccc2)CC(=O)N3)cc(OC)c1OC	12.8 µM	10.6 µM	> 100 µM	8.76 µM	
CN1CC(=O)Nc2cnc(Nc3ccccc3)nc21	> 100 µM	> 100 µM	> 100 µM	> 100 µM	
CN1CCN(Nc2ncc3c(n2)N(Cc2ccccc2)CC(=O)N3)CC1	98.3 µM	98.3 µM	> 100 µM	79 µM	
O=C1CN(Cc2ccccc2)c2nc(Nc3ccccc3)ncc2N1	11.9 µM	37 µM	20.6 µM	15.2 µM	
O=C1CNc2nc(Nc3ccccc3)ncc2N1	> 100 µM	> 100 µM	> 100 µM	85.4 µM	
COc1cccc(Nc2ncc3c(n2)NCC(=O)N3)c1	> 100 µM	93.2 µM	> 100 µM	> 100 µM	
O=c1[nH]cc(F)c(=O)[nH]1 [FLUOROURACIL]	98.2 µM	53.5 µM	95.7 µM	171 µM	
COc1cccc(Nc2ncc3c(n2)N(Cc2ccccc2)CC(=O)N3)c1	81.1 µM	99.9 µM	40.4 µM	78.7 µM	
CN1CC(=O)Nc2cnc(NCCc3ccccc3)nc21	41.2 µM	34.2 µM	56.2 µM	23.2 µM	
O=C1CN(Cc2ccccc2)c2nc(NCCc3ccccc3)ncc2N1	10.7 µM	22.4 µM	7.75 µM	6.37 µM	Activity (T47D [4]): 16.5%; Ratio IC50 (T47D [5]): 11; Activity (T47D [6]): 20.98%; Activity (T47D [7]): 18.98%; Activity (T47D [8]): 19.76%; Activity (T47D [9]): 74.68%; Ratio IC50 (BT-549 [10]): 8; Ratio IC50 (MDA-MB-468 [11]): 49; Activity (T47D [12]): 4.34%; Activity (T47D [13]): 72.7%; Activity (T47D [14]): 10.8%; Activity (T47D [15]): Dose-dependent effect; Activity (T47D [16]): 61.25%
O=C1CNc2nc(Nc3ccc(F)cc3)ncc2N1	92.4 µM	> 100 µM	> 100 µM	> 100 µM	
COc1cccc(Nc2ncc3c(n2)N(C)CC(=O)N3)c1	> 100 µM	> 100 µM	> 100 µM	> 100 µM	
CS(=O)(=O)N1CCC(Nc2ncc3c(n2)N(Cc2ccccc2)CC(=O)N3)CC1	> 100 µM	> 100 µM	97.4 µM	> 100 µM	
CCOC(=O)CNc1ncc2c(n1)N(Cc1ccccc1)CC(=O)N2	> 100 µM	> 100 µM	> 100 µM	> 100 µM	
CCOC(=O)CN(Cc1ccccc1)c1nc(NCCc2ccccc2)ncc1[N+](=O)[O-]	13.7 µM	24.2 µM	6.26 µM	6.59 µM	
O=C1CNc2nc(Nc3ccc(Cl)cc3)ncc2N1	17.7 µM	41.6 µM	15 µM	29.3 µM	
COc1ccc(Nc2ncc3c(n2)NCC(=O)N3)cc1	95 µM	> 100 µM	> 100 µM	89.2 µM	
COc1cc(Nc2ncc3c(n2)N(C)CC(=O)N3)cc(OC)c1OC	45.2 µM	46.2 µM	66.1 µM	56.2 µM	
